Conditions: the rest remains in inactive suspension

amount going into solution in water: 16 ppm
SMILES: [Ca+2].[F-].[F-] [CaF2, Calcium-Fluoride]

Reference: US8961873B2, “Antinfection protecting healthcare workers to prevent spreading of communicable and nosocomial infections” (priority 2011, dated 2015)
